Experimental findings from US10179782B2, “Substituted sulfonamide compounds” (Genentech, Inc., priority 2016, dated 2019) are described below.

The term pIC50 denotes −log10 of the IC50, conventionally taken in molar units.

The assay deals with T1, human TRPA1 (Homo sapiens, UniProt O75762).
T1 construct: expressed in transfected cells; host or cells: CHO cells
Put plainly: TRPA1 FLIPR Tetra calcium influx assay in CHO cells (block of cinnamaldehyde-induced calcium influx). It counts as cell-based. Particulars: Table 2; CHO cells expressing TRPA1; agonist cinnamaldehyde 75 uM; 20 min compound incubation; Hill coefficient fixed to 1.5; read-out: hTRPA1 CHO Ca2+ AUC EVO (IC50). The procedure: IC50s (effective concentration) of compounds on the human and rat TRPA1 channels were determined using a FLIPR Tetra instrument. CHO cells expressing TRPA1 were plated into 384-well plates, incubated overnight at 37 C, and loaded with BD calcium indicator dye for 1 hr at 37° C. followed by 15 minutes at room temperature. The assay buffer was Hank's Balanced Salt Solution (HBSS) containing 20 mM HEPES (pH readjusted to 7.4) along with 0.02% BSA.
Following dye load and plate cool down, compounds were added to the cells using FLIPR Tetra. Plates were then incubated with compounds for 20 minutes at room temperature prior to adding agonist. Following this incubation, ˜EC80 concentration of cinnamaldehyde (75 uM for human TRPA1 and 45 uM for rat TRPA1) was added to active the channels and block of cinnamaldehyde induced calcium influx was measured.
IC50s were fit with a standard Hill function, keeping the Hill coefficient (n) fixed to 1.5. Fixing the Hill coefficient will generally reduce variability of the IC50 determination. The IC50s were individually examined to make sure the MIN and MAX points were set correctly prior to validation of the results.

pIC50: −log10 of the molar value.

T1 sequence (O75762 whole entry): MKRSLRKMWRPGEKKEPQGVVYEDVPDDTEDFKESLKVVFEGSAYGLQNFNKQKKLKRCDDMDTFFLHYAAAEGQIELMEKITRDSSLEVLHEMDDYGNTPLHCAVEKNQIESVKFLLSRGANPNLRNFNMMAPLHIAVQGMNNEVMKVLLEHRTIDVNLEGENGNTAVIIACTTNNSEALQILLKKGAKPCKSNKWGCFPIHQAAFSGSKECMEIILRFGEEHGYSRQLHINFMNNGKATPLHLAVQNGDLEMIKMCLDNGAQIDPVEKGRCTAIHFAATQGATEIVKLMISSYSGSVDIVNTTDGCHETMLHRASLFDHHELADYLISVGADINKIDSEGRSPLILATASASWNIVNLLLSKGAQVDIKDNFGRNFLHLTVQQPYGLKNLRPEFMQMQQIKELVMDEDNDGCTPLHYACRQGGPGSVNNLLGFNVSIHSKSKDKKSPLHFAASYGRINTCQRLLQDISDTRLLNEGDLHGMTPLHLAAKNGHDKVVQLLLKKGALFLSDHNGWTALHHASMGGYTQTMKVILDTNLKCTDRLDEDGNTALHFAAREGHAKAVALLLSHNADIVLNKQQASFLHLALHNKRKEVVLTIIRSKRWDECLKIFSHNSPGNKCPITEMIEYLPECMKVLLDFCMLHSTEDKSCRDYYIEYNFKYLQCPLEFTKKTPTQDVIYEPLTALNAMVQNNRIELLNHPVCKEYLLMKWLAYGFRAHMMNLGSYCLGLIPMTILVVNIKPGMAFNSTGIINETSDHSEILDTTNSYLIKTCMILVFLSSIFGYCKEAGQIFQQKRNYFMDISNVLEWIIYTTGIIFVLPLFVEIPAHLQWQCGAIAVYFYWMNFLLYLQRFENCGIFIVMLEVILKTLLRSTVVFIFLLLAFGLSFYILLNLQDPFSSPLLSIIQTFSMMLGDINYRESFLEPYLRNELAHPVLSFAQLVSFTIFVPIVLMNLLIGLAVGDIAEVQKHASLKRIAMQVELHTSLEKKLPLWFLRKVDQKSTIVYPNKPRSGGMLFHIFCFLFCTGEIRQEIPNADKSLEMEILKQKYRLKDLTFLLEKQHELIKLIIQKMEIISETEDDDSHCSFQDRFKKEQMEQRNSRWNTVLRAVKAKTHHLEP

On to `C[C@H]1[C@H](F)C[C@@H](C(=O)NCc2ccnc(-c3cnc(C(F)(F)F)nc3)c2)N1S(=O)(=O)c1ccc(F)cc1` [Example 38, (4R,5S)-4-fluoro-1-[(4-fluorobenzene)sulfonyl]-5-methyl-N-([2-[2-(trifluoromethyl)pyrimidin-5-yl]pyridin-4-yl]methyl)pyrrolidine-2-carboxamide], for which the pIC50 was 7.16.
Take `C[C@H]1[C@H](F)C[C@@H](C(=O)NCc2cc(-c3cnc(C(F)(F)F)nc3)ncc2F)N1S(=O)(=O)c1ccncc1` [Example 39, (2S,4R,5S)-4-fluoro-N-((5-fluoro-2-(2-(trifluoromethyl)pyrimidin-5-yl)pyridin-4-yl)methyl)-5-methyl-1-(pyridin-4-ylsulfonyl)pyrrolidine-2-carboxamide]: the pIC50 was 6.20.
Consider `C[C@H]1[C@H](F)C[C@@H](C(=O)NCc2cn(-c3cnc(C(F)(F)F)nc3)nc2C(F)F)N1S(=O)(=O)c1ccc(F)cc1` [Example 40, (2S,4R,5S)-N-[[3-(difluoromethyl)-1-[2-(trifluoromethyl)pyrimidin-5-yl]-1H-pyrazol-4-yl]methyl]-4-fluoro-1-[(4-fluorobenzene)sulfonyl]-5-methylpyrrolidine-2-carboxamide], for which the pIC50 is 7.37.
Take `C[C@H]1[C@H](F)C[C@@H](C(=O)NCc2cc(-c3cnc(C(F)(F)F)nc3)ncc2F)N1S(=O)(=O)c1cccc(F)c1` [Example 41, (2S,4R,5S)-4-fluoro-N-((5-fluoro-2-(2-(trifluoromethyl)pyrimidin-5-yl)pyridin-4-yl)methyl)-1-(3-fluorophenylsulfonyl)-5-methylpyrrolidine-2-carboxamide]: the pIC50 is 7.39.
Consider `C[C@H]1[C@H](F)C[C@@H](C(=O)NCc2cc(-c3cnc(C(F)(F)F)nc3)nc(N3CCC3)n2)N1S(=O)(=O)c1ccc(F)cc1` [Example 42, (2S,4R,5S)-N-((2-(azetidin-1-yl)-2′-(trifluoromethyl)-4,5′-bipyrimidin-6-yl)methyl)-4-fluoro-1-(4-fluorophenylsulfonyl)-5-methylpyrrolidine-2-carboxamide], for which the pIC50 was 7.66.
For the compound `C[C@H]1[C@H](F)C[C@@H](C(=O)NCc2ccc(F)c(-c3cnc(C(F)(F)F)nc3)c2)N1S(=O)(=O)c1ccc(F)cc1` [Example 43, (2S,4R,5S)-4-fluoro-N-(4-fluoro-3-(2-(trifluoromethyl)pyrimidin-5-yl)benzyl)-1-(4-fluorophenylsulfonyl)-5-methylpyrrolidine-2-carboxamide], the pIC50 is 8.03.
On to `C[C@H]1[C@H](F)C[C@@H](C(=O)NCc2cc(-c3cnc(C(F)(F)F)nc3)ccc2F)N1S(=O)(=O)c1ccc(F)cc1` [Example 44, (2S,4R,5S)-4-fluoro-N-(2-fluoro-5-(2-(trifluoromethyl)pyrimidin-5-yl)benzyl)-1-(4-fluorophenylsulfonyl)-5-methylpyrrolidine-2-carboxamide], for which the negative-log IC50 (pIC50) is 8.13.
Under `C[C@H]1[C@H](F)C[C@@H](C(=O)NCc2cc(F)cc(-c3cnc(C(F)(F)F)cn3)c2)N1S(=O)(=O)c1ccc(F)cc1` [Example 45, (2S,4R,5S)-4-fluoro-N-(3-fluoro-5-(5-(trifluoromethyl)pyrazin-2-yl)benzyl)-1-(4-fluorophenylsulfonyl)-5-methylpyrrolidine-2-carboxamide] stands 8.09.
Consider `C[C@H]1[C@H](F)C[C@@H](C(=O)NCc2cn(-c3cnc(C(F)(F)F)nc3)nc2C(F)(F)F)N1S(=O)(=O)c1ccc(F)cc1` [Example 46, (2S,4R,5S)-4-fluoro-1-(4-fluorophenylsulfonyl)-5-methyl-N-((3-(trifluoromethyl)-1-(2-(trifluoromethyl)pyrimidin-5-yl)-1H-pyrazol-4-yl)methyl)pyrrolidine-2-carboxamide], for which the pIC50 was 7.58.
Under `C[C@H]1[C@H](F)C[C@@H](C(=O)NCc2cc(OCc3ccc(F)cn3)c(F)cn2)N1S(=O)(=O)c1ccc(F)cc1` [Example 47, (2S,4R,5S)-4-fluoro-N-((5-fluoro-4-((5-fluoropyridin-2-yl)methoxy)pyridin-2-yl)methyl)-1-(4-fluorophenylsulfonyl)-5-methylpyrrolidine-2-carboxamide] stands 5.72; under `C[C@H]1[C@H](F)C[C@@H](C(=O)NCc2cc(OCc3cncc(C(F)(F)F)c3)c(F)cn2)N1S(=O)(=O)c1ccc(F)cc1` [Example 48, (2S,4R,5S)-4-fluoro-N-((5-fluoro-4-((5-(trifluoromethyl)pyridin-3-yl)methoxy)pyridin-2-yl)methyl)-1-(4-fluorophenylsulfonyl)-5-methylpyrrolidine-2-carboxamide], 6.98.
Under `C[C@H]1[C@H](F)C[C@@H](C(=O)NCc2cc(-c3cnc(C(F)(F)F)nc3)c(C3CC3)cn2)N1S(=O)(=O)c1ccc(F)cc1` [Example 49, (2S,4R,5S)-N-[[5-cyclopropyl-4-[2-(trifluoromethyl)pyrimidin-5-yl]-2-pyridyl]methyl]-4-fluoro-1-(4-fluorophenyl)sulfonyl-5-methyl-pyrrolidine-2-carboxamide] stands 7.44; under `C[C@H]1[C@H](F)C[C@@H](C(=O)NCc2cn([C@H]3CC[C@H](C(F)(F)F)CC3)nc2C(F)(F)F)N1S(=O)(=O)c1ccc(F)cc1` [Example 50, (2S,4R,5S)-4-fluoro-1-(4-fluorophenyl)sulfonyl-5-methyl-N-[[3-(trifluoromethyl)-1-[4-(trifluoromethyl)cyclohexyl]pyrazol-4-yl]methyl]pyrrolidine-2-carboxamide], 7.30; under `C[C@H]1[C@H](F)C[C@@H](C(=O)NCc2cc(-c3cnc(C(F)(F)F)nc3)ncc2C#N)N1S(=O)(=O)c1ccc(F)cc1` [Example 51, (2S,4R,5S)-N-[[5-cyano-2-[2-(trifluoromethyl)pyrimidin-5-yl]-4-pyridyl]methyl]-4-fluoro-1-(4-fluorophenyl)sulfonyl-5-methyl-pyrrolidine-2-carboxamide], 7.81.
As for `C[C@H]1[C@H](F)C[C@@H](C(=O)NCc2cc([C@H]3CC[C@@H](C(F)(F)F)CC3)c(F)cn2)N1S(=O)(=O)c1ccc(F)cc1` [Example 52, (2S,4R,5S)-4-fluoro-1-(4-fluorophenyl)sulfonyl-N-[[5-fluoro-4-[4-(trifluoromethyl)cyclohexyl]-2-pyridyl]methyl]-5-methyl-pyrrolidine-2-carboxamide], the negative logarithm of the IC50 (pIC50) was 8.05.
For the compound `C[C@H]1[C@H](F)C[C@@H](C(=O)NCc2cc([C@H]3CC[C@H](C(F)(F)F)CC3)c(F)cn2)N1S(=O)(=O)c1ccc(F)cc1` [Example 53, (2S,4R,5S)-4-fluoro-1-(4-fluorophenyl)sulfonyl-N-[[5-fluoro-4-[4-(trifluoromethyl)cyclohexyl]-2-pyridyl]methyl]-5-methyl-pyrrolidine-2-carboxamide], the pIC50 was 7.19.
As for `C[C@H]1[C@H](F)C[C@@H](C(=O)NCc2cc([C@H]3CC[C@@H](C(F)(F)F)CC3)ncc2F)N1S(=O)(=O)c1ccc(F)cc1` [Example 54, (2S,4R,5S)-4-fluoro-1-(4-fluorophenyl)sulfonyl-N-[[5-fluoro-2-[4-(trifluoromethyl)cyclohexyl]-4-pyridyl]methyl]-5-methyl-pyrrolidine-2-carboxamide], the pIC50 was 8.20.
Under `C[C@H]1[C@H](F)C[C@@H](C(=O)NCc2cc([C@H]3CC[C@H](C(F)(F)F)CC3)ncc2F)N1S(=O)(=O)c1ccc(F)cc1` [Example 55, (2S,4R,5S)-4-fluoro-1-(4-fluorophenyl)sulfonyl-N-[[5-fluoro-2-[4-(trifluoromethyl)cyclohexyl]-4-pyridyl]methyl]-5-methyl-pyrrolidine-2-carboxamide] stands 8.23; under `C[C@H]1[C@H](F)C[C@@H](C(=O)NCc2cc(-c3cnc(C(F)(F)F)s3)ncn2)N1S(=O)(=O)c1ccc(F)cc1` [Example 56, (2S,4R,5S)-4-fluoro-1-(4-fluorophenyl)sulfonyl-5-methyl-N-[[6-[2-(trifluoromethyl)thiazol-5-yl]pyrimidin-4-yl]methyl]pyrrolidine-2-carboxamide], 7.17; under `O=C(NCc1cc(N2CCC(OC(F)(F)F)CC2)ncc1F)[C@@H]1C[C@@H](F)CN1S(=O)(=O)c1ccc(F)cc1` [Example 57, (2S,4R)-4-fluoro-1-(4-fluorophenyl)sulfonyl-N-[[5-fluoro-2-[4-(trifluoromethoxy)-1-piperidyl]-4-pyridyl]methyl]pyrrolidine-2-carboxamide], 7.31.
As for `C[C@H]1CCC[C@@H](C(=O)NCc2cc(-c3cnc(C(F)(F)F)nc3)ncc2F)N1S(=O)(=O)c1ccc(F)cc1` [Example 58, (2S,6S)-1-(4-fluorophenyl)sulfonyl-N-[[5-fluoro-2-[2-(trifluoromethyl)pyrimidin-5-yl]-4-pyridyl]methyl]-6-methyl-piperidine-2-carboxamide], the pIC50 is 7.13.
Under `O=C(NCc1cc(-c2ccc(S(F)(F)(F)(F)F)cc2)ncc1F)[C@@H]1C[C@@H](F)CN1S(=O)(=O)c1ccc(F)cc1` [Example 59, (2S,4R)-4-fluoro-N-[[5-fluoro-2-[4-(pentafluoro-sulfanyl)phenyl]-4-pyridyl]methyl]-1-(4-fluorophenyl)sulfonyl-pyrrolidine-2-carboxamide] stands 6.79.
